The text below walks through data of patent publication US10941157B2, “Pesticidal compositions and uses thereof” (Gilead Apollo, LLC, priority 2015, dated 2021).

In test [1] the test system is Mycosphaerella graminicola (synthetic Septoria tritici). Briefly: Foliar protection test for wheat septoria leaf blotch control. Type of test: in vivo. Conditions: foliar spray on Triticum aestivum cv. WinterHawk, inoculated 1 hour after treatment, evaluated 16 days later.
Test [2] concerns Diplodia maydis (Dm). Nature of the test: In vitro pathogen growth inhibition assay, Dm. Type of test: cell-based. Conditions: Stenocarpella maydis, 48 h. A digest of the protocol: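 Spores of Dm, Fv and Pc were diluted in 17% V8 liquid medium; Rs used 1.5 mm mycelial plugs in ¼ PDB. Compounds from 2.5 mg/ml DMSO stocks were combined with inoculum, growth was read by OD600 at 24 and 48 h with blank subtraction, and the reported value is the concentration giving ≥90% inhibition.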

Test [3] has as its system Sphaerotheca fuliginea. Nature of the test: Foliar protection for cucumber powdery mildew control. Type of test: in vivo. The settings on record: foliar spray on Cucumis sativus cv. Straight Eight, inoculated 24 hours after treatment, evaluated 7 days later. A digest of the protocol:
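Cucumber plants (cv. Straight Eight, 10 days old) sprayed to wetness on both leaf surfaces, then inoculated 24 h later by shaking sporulating stock plants over them. Held at 23–27 °C, 16 h light, 60% RH. Mildew colonization scored 7 days after inoculation, at compound concentrations of 10 ppm or lower.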

In test [4] the test system is Blumeria graminis f. sp. hordei. Nature of the test: Early foliar disease control via seed treatment (barley powdery mildew). Type of test: in vivo. Conditions: seed treatment rate 0.025 mg/seed; barley inoculated 7 days after planting, evaluated 7 days later. How it is done:
Barley seeds (Hordeum vulgare cv. Perry or Conlon) were treated with a test compound dissolved in pure acetone, in which the acetone solution (1 mL) was used per 50 seeds in glass jars in a fume hood. The seeds were swirled in the glass jars by hand until no obvious presence of acetone remained and the seeds were mostly dry. Plants were grown for 7 days in 2-inch square pots containing Metromix 200 medium amended with fertilizer. […] After inoculation with the pathogen of Blumeria graminis f. sp. hordei, plants were kept at conditions of 20 to 22° C., 200 uM of light, 70% humidity to facilitate infection and disease development. At 7 days after planting (1st true leaf fully expanded), the plants were moved to the cooler chamber and inoculated by shaking well-colonized, untreated stock plants above the treated material. […] Efficacy was evaluated in 7 days later by examining leaves for colonization and growth of powdery mildew. Each side of each leaf was assigned a severity rating of 0, 1, 5, 10, 25, 50, 75, or 100 percent diseased area. Table 14 lists the results of barley powdery mildew control upon seed treatment with test compounds.

Where [5] appears, read: ≥90% growth inhibition, 48 hours, vs 2% DMSO control, read-out: Compound Concentration (ppm) sufficient for ≥90% inhibition of Dm.

SMILES strings stand for the structures. ≈ marks a conversion by molar mass, not a printed value. Read-outs that look alike come from different tables or passages of the source.

Regarding `COc1ccc(F)cc1[C@H](Cn1c(=O)n(C(C)(C)C(=O)NC(C)C)c(=O)c2c(C)c(-n3nccn3)sc21)OCCC#N` [Compound I-095, (R)-2-(1-(2-(2-cyanoethoxy)-2-(5-fluoro-2-methoxyphenyl)ethyl)-5-methyl-2,4-dioxo-6-(2H-1,2,3-triazol-2-yl)-1,4-dihydrothieno[2,3-d]pyrimidin-3 (2H)-yl)-N-isopropyl-2-methylpropanamide], in test [1], the “Septoria Leaf Blotch Control at a compound concentration of 25 ppm or lower” value is “AA (≥85% control of wheat septoria leaf blotch)”. Besides, the IC90 in test [2] (≥90% inhibition, 48 hours vs 2% DMSO control, read-out: Compound Concentration (ppm) sufficient for ≥90% inhibition of growth, Dm) turned out to be 0.08 µg/mL (≈ 0.134 µM). Further, in test [3], the “Cucumber Powdery Mildew Control at a compound concentration of 10 ppm or lower” value is reported as “AA (≥85% control of cucumber powdery mildew)”.
For `COc1ccc(F)cc1[C@H](Cn1c(=O)n(C(C)(C)C(=O)NC(C)C)c(=O)c2c(C)c(-n3cccn3)sc21)OCCC#N` [Compound I-191, (R)-2-(1-(2-(2-cyanoethoxy)-2-(5-fluoro-2-methoxyphenyl)ethyl)-5-methyl-2,4-dioxo-6-(1H-pyrazol-1-yl)-1,4-dihydrothieno[2,3-d]pyrimidin-3 (2H)-yl)-N-isopropyl-2-methylpropanamide], the “Barley Powdery Mildew Reduction (%)” value in test [4] was 94%. For the same molecule, in test [1], the “Septoria Leaf Blotch Control at a compound concentration of 25 ppm or lower” value is listed as “AA (≥85% control of wheat septoria leaf blotch)”. Besides, the IC90 in test [2] (setting [5]) is at least 0.4 µg/mL. For the same molecule, the “Cucumber Powdery Mildew Control at a compound concentration of 10 ppm or lower” value in test [3] is “AA (≥85% control of cucumber powdery mildew)”.
Turning to `COc1ccccc1[C@H](Cn1c(=O)n(C(C)(C)C(=O)NC(C)C)c(=O)c2c(C)c(-n3nccn3)sc21)OCCC#N` [Compound I-193, (R)-2-(1-(2-(2-cyanoethoxy)-2-(2-methoxyphenyl)ethyl)-5-methyl-2,4-dioxo-6-(2H-1,2,3-triazol-2-yl)-1,4-dihydrothieno[2,3-d]pyrimidin-3 (2H)-yl)-N-isopropyl-2-methylpropanamide], the “Barley Powdery Mildew Reduction (%)” value in test [4] worked out at 96%. The “Septoria Leaf Blotch Control at a compound concentration of 25 ppm or lower” value in test [1] is reported as “AA (≥85% control of wheat septoria leaf blotch)”. The IC90 in test [2] (setting [5]) is 0.08 µg/mL (≈ 0.138 µM). In addition, the “Cucumber Powdery Mildew Control at a compound concentration of 10 ppm or lower” value in test [3] is “AA (≥85% control of cucumber powdery mildew)”.
